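How tested: cells in 96-well plates exposed to compound for 48 hours at five concentrations. TGI denotes the concentration required for complete inhibition of growth.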
Experiments:
Experiment in all cases: inhibition of tumour cell growth, NCI panel, 48 h
786-0 renal = test system: 786-0 renal
EKVX NSCLC = test system: EKVX NSCLC
MDA-MB-231 breast = test system: MDA-MB-231 breast
MDA-N = test system: MDA-N
NCI-H460 lung = test system: NCI-H460 lung
OVCAR-3 ovarian = test system: OVCAR-3 ovarian
SF-268 CNS = test system: SF-268 CNS
SK-MEL-2 melanoma = test system: SK-MEL-2 melanoma
SR leukemia = test system: SR leukemia
T-47D breast = test system: T-47D breast
U251 CNS = test system: U251 CNS

Structure (SMILES) | TGI (786-0 renal) [µM] | TGI (EKVX NSCLC) [µM] | TGI (MDA-MB-231 breast) [µM] | TGI (MDA-N) [µM] | TGI (NCI-H460 lung) [µM] | TGI (OVCAR-3 ovarian) [µM] | TGI (SF-268 CNS) [µM] | TGI (SK-MEL-2 melanoma) [µM] | TGI (SR leukemia) [µM] | TGI (T-47D breast) [µM] | TGI (U251 CNS) [µM]
Nc1[nH]c(=O)nc2snnc12 | > 100 | > 100 | > 100 | > 100 | > 100 | > 100 | > 51.7 | 14.4 | > 100 | > 100 | > 100
O=C1CCCC/C1=C\c1ccc([N+](=O)[O-])cc1 | 28.1 | > 100 | 52.6 | 41.5 | > 100 | 83.5 | > 100 | 46 | > 100 | 65.3 | 29.6
FC(F)(F)c1ccc2c(c1)nc1n2C(c2c(Cl)cccc2Cl)SC1 (stereo not drawn) | 33.4 | 32.3 | 35.7 | 36.8 | 35 | 28.8 | 47.2 | 40.8 | > 100 | 47.4 | 38.3
O=C1/C(=C\c2ccc(Br)cc2)CCCc2ccccc21 | 27.8 | 39 | 42 | 47 | 34 | 65.1 | 37.1 | 39.2 | 58 | 50.6 | 31.2
C[C@@H](C[C@H]1OC(C)(C)O[C@@H]1C(C)(C)O)[C@H]1CC=C2[C@]3(C)[C@H](O)C[C@H]4C(C)(C)[C@H](O)CC[C@]4(C)[C@H]3CC[C@]21C | 18.5 | 21.9 | 18.7 | 16.8 | 14.2 | 15.4 | 31.4 | 24.7 | 11.3 | 43.2 | 15
N#Cc1c2ccc([N+](=O)[O-])cc2c(=O)n2c1[nH]c1ccc(C(F)(F)F)cc12 | > 100 | > 100 | > 77.8 | > 100 | > 100 | 83.4 | > 100 | > 100 | > 25.7 | > 100 | > 100
CC(C)=NOC(=O)CNC(=O)C(Cc1ccccc1)NC(=O)C(C)NC(=O)OC(C)(C)C (stereo not drawn) | > 100 | > 100 | > 100 | > 100 | > 100 | > 100 | > 100 | > 100 | > 100 | > 100 | > 100
Cc1nc2ccc(S(=O)(=O)NS(=O)(=O)c3ccc(-c4ccccc4)cc3)cc2c(=O)n1NS(=O)(=O)c1ccc(-c2ccccc2)cc1 | > 100 | > 100 | > 100 | > 100 | > 100 | > 100 | > 100 | > 100 | > 100 | > 100 | > 100
Nc1ccccc1C#CC(=O)c1cccc(C(F)(F)F)c1 | 4.68 | 38 | 4.97 | 10.6 | 47.6 | 14.7 | 5.88 | 2.54 | > 100 | > 100 | 3.95
CO/N=C\c1ccc2c(c1)Sc1ccccc1O2 | > 100 | > 100 | > 100 | > 100 | > 100 | > 100 | > 100 | > 100 | > 100 | > 100 | > 100
N#[N+]c1c([O-])c2ccccc2c2ccccc12 | > 100 | 72.8 | > 100 | > 100 | > 100 | > 100 | > 100 | 93.4 | > 100 | > 100 | > 100
CC12CCCCC1=C(F)C(F)(F)S2 (stereo not drawn) | 45.9 | > 100 | > 100 | > 46.4 | > 100 | 48 | > 100 | > 100 | 28 | 74.5 | > 100
Oc1ccc(/C=C/c2cccc(/C=C/c3ccc(O)c(O)c3)n2)cc1O | 24.7 | 25.5 | 76.7 | 20.5 | 38.1 | > 100 | 23.3 | 32.5 | 14.5 | 7.06 | > 100
CC1(C)OCC(C2OC3OC(C)(C)OC3C2c2ccccc2)O1 (stereo not drawn) | > 100 | > 100 | > 100 | > 100 | > 100 | 91.7 | > 100 | 64.8 | > 100 | > 100 | > 100
CC(C)(C)C(=O)Oc1ccc(/C=C/C(=O)c2ccc(OC(=O)C(C)(C)C)cc2)cc1 | > 100 | > 100 | > 100 | > 100 | > 100 | 72 | > 100 | > 100 | 76.4 | > 100 | > 100
CCC(=O)N/S(=N/S(=O)(=O)c1ccccc1)C(Cl)(Cl)Cl (stereo not drawn) | > 100 | > 100 | > 100 | > 100 | > 100 | > 100 | > 100 | > 100 | > 100 | > 100 | > 100
N#Cc1c(Cl)c2cccnc2n2c1nc1ccccc12 | 3.27 | 14.9 | 5.38 | 15.7 | 19.6 | 9.6 | 8.4 | 23.3 | 5.83 | 4.79 | 10.3
C[C@H]1C2Cc3cc(O)ccc3[C@@]1(C)CCN2CCc1ccc(N)cc1 | 30.7 | > 100 | > 100 | 38.4 | > 100 | 47 | 52.6 | > 100 | 72.8 | > 100 | 33.9

Source: PubChem BioAssay (NCI)
